Active and inactive are the calls of the source. The rule behind the calls is not given here.
Columns and labels:
Plasmodium falciparum [1] = assay: Antiplasmodial activity against chloroquine-sensitive Plasmodium falciparum 3D7 infected in erythrocytes assessed as growth inhibition at 10 uM incubated for 48 hrs by [3H]hypoxanthine incorporation assay; format: functional, organism-based
Plasmodium falciparum [2] = assay: Antiplasmodial activity against chloroquine-sensitive Plasmodium falciparum 3D7 infected in erythrocytes assessed as growth inhibition incubated for 48 hrs by [3H]hypoxanthine incorporation assay; format: functional, organism-based

Row | SMILES | growth inhibition (GI) (Plasmodium falciparum [1]) | IC50 (Plasmodium falciparum [2]) [µM]
1 | CCCCCCCCCCCCCCCCCC(=O)NCC(O)c1cc(Br)c(OCCCNC(=O)C2=NO[C@@]3(CC(Br)=C(OC)C(Br)=CO3)[C@H]2O)c(Br)c1 (some centres undefined) | inactive | –
2 | CCC(C)CCCCCCCCCCCCCCC(=O)NCCc1cc(Br)c(OCCCNC(=O)C2=NO[C@@]3(CC(Br)=C(OC)C(Br)=CO3)[C@H]2O)c(Br)c1 (some centres undefined) | inactive | –
3 | COC1=C(Br)C[C@]2(OC=C1Br)ON=C(C(=O)NCCCOc1c(Br)cc(CCNC(=O)CO)cc1Br)[C@@H]2O | inactive | –
4 | COC1=C(Br)C[C@]2(OC=C1Br)ON=C(C(=O)NCCCOc1c(Br)cc(CCNC(=O)CCCCCCCCCCCCC(C)C)cc1Br)[C@@H]2O | inactive | –
5 | COC1=C(Br)C[C@]2(OC=C1Br)ON=C(C(=O)NCCCOc1c(Br)cc(C=O)cc1Br)[C@@H]2O | inactive | –
6 | COC1=C(Br)C[C@]2(OC=C1Br)ON=C(C(=O)NCCCOc1c(Br)cc(C3CNC(=O)O3)cc1Br)[C@@H]2O (some centres undefined) | inactive | –
7 | CCCCC/C=C\CCCCCCCCC(=O)NCCc1cc(Br)c(OCCCNC(=O)C2=NO[C@@]3(CC(Br)=C(OC)C(Br)=CO3)[C@H]2O)c(Br)c1 | inactive | –
8 | COC1=C(Br)C[C@]2(OC=C1Br)ON=C(C(=O)NCCCOc1c(Br)cc(C(O)CNC=C3C(=O)C=CC3=O)cc1Br)[C@@H]2O (some centres undefined) | Active | 6.4

— ChEMBL document CHEMBL2203011, “Psammaplysin derivatives from the Balinese marine sponge Aplysinella strongylata” (J Nat Prod, 2012)
